How the values were obtained:
[1] = target: T1, Protein farnesyltransferase (Homo sapiens, UniProt P49354+P49356); test: In vitro inhibition of human Farnesyltransferase; format: protein-complex assay
[2] = target: T1, Protein farnesyltransferase; test: Percent inhibition of human Farnesyltransferase; format: protein-complex assay; details: concentration not given here

Structure (SMILES)	IC50 [1] [nM]	inhibition [2] [%]
COc1cc(C)cc2c1[C@@H](C1CCN(C(=O)Cc3cc[n+]([O-])cc3)CC1)c1ncc(Br)cc1CC2	3.6	
COc1cc(C)cc2c1C(C1CCN(C(=O)Cc3cc[n+]([O-])cc3)CC1)c1ncc(C)cc1CC2 (configuration not stated)	34	
COc1cc(C)cc2c1C(C1CCN(C(=O)Cc3cc[n+]([O-])cc3)CC1)c1ncc(C(C)(C)O)cc1CC2 (configuration not stated)		26
C=Cc1cnc2c(c1)CCc1cc(C)cc(OC)c1C2C1CCN(C(=O)Cc2cc[n+]([O-])cc2)CC1 (configuration not stated)	59	
COc1cc(C)cc2c1C(C1CCN(C(=O)Cc3cc[n+]([O-])cc3)CC1)c1ncccc1CC2 (configuration not stated)	140	
CCc1cnc2c(c1)CCc1cc(C)cc(OC)c1C2C1CCN(C(=O)Cc2cc[n+]([O-])cc2)CC1 (configuration not stated)	74	
COc1cc(C)cc2c1C(C1CCN(C(=O)Cc3cc[n+]([O-])cc3)CC1)c1ncc(C3CC3)cc1CC2 (configuration not stated)	200	
